Experimental data as given in article PMC9499467, “Phenanthroindolizidine Alkaloids Isolated from Tylophora ovata as Potent Inhibitors of Inflammation, Spheroid Growth, and Invasion of Triple-Negative Breast Cancer” (International Journal of Molecular Sciences, 2022).
Where two headings read alike, the source gives them in different places.

Legend:
NFκB = NFκB inhibition assay (24 h), NFκB-dependent firefly luciferase reporter; assay type: cell-based; details: Homo sapiens, 24 h, read-out: NFκB Inhibition 24 h IC50
Method: On day 1, 3 × 10^4 NFκB MDA-MB-231-firefly cells were seeded into white 96 well plates (Greiner; #655098). On day 2, the medium was replaced with starvation medium and the cells were pre-incubated for 20 min with either 100 µL of DMSO (Roth; #A994.1) alone at maximal 0.1%, or with the final concentration of the diluted compounds (Table 3). To activate NFκB signaling, cells were stimulated with 20 ng/mL TNFα (Peprotech, Hamburg, Germany; #300-01A). Cell lysis was performed in 20 µL 1× cell lysis buffer according to the manufacturer’s instruction for the Luciferase Assay System (Promega #E1500). NFκB-dependent luminescence was determined as relative light units (RLU) using the microplate reader Spark® (Tecan).

MDA-MB-468-UnaG [1] = experiment: 2D cell viability in MDA-MB-468-UnaG under normoxia or CoCl2-simulated hypoxia
MDA-MB-468-UnaG [2] = experiment: Cell cycle studies (PI-DNA flow cytometry) in MDA-MB-468-UnaG; assay type: cell-based; details: normoxia
Method: To investigate cell cycle progression in the presence of compound (1s) or paclitaxel (Santa Cruz Biotechnology; #sc-201439), we quantified the DNA content in the cell. On day 1, the cells were seeded in 1 mL into a 24 well plate (Greiner; #662160). On day 2, MDA-MB-468-UnaG were pre-treated either without (normoxia) or with 100 µM CoCl2 (hypoxia) (Sigma-Aldrich; #C8661) for 24 h before compounds were applied. On day 2 for MDA-MB-231 or on day 3 for MDA-MB-468-UnaG, paclitaxel was applied at the concentrations 15 nM, 37 nM, and 100 nM, and compound (1s) was applied at concentrations ranging from 2 nM to 1000 nM. Post-treatment cells were washed in 1× PBS (Thermo Fisher Scientific; #14190); fixed in 70% (v/v) ethanol overnight at 4 °C; washed again in 1× PBS; and, finally, DNA was stained for 15 min at 37 °C in the presence of 10 µg/mL propium iodide (PI; Sigma-Aldrich; #4864) and 100 µg/mL RNase A (Thermo Fisher Scientific; #EN0531) dissolved in 0.1% triton™ X-100 (Sigma-Aldrich; #X100), dissolved in PBS. The fluorescence signal resulting from PI-DNA complex formation was recorded using the flow cytometer CytoFlex (Beckmann Coulter, Krefeld, Germany). The cell cycle phase population was determined based on the DNA content in a set of chromosomes (n) in a cell using the integrated software CytExpert (Beckmann Coulter): sub-G0/G1 (<2n), G0/G1 (2n), S (>2n, <4n), G2/M (4n) or hyperploid cells (>4n) (see Figure S10).

IκBα = experiment: Western blot of IκBα after TNFα stimulation; assay type: cell-based; details: MDA-MB-468-UnaG
Method: We investigated NFκB-blocking by determining the protein expression of its cytoplasmic inhibitor IκBα in MDA-MB-468-UnaG cells. On day 1, the cells were seeded into a 6 well plate (Greiner; #657160). On day 2, the cells were either left untreated (normoxia) or exposed to 100 µM CoCl2 (hypoxia) (Sigma-Aldrich; #C8661). On day 3, the medium was replaced, and cells were either exposed to DMSO (Roth; #A994.1) alone at maximal 0.1% or to compound (1s) at the concentrations 2 nM, 5 nM, 10 nM, 20 nM, or 50 nM for 1 h. An amount of 10 ng/mL TNFα was applied as a positive control. […] An amount of 20 µg of the total protein was separated on a ready-to-use 12% SDS-gel (Bio-Rad, Düsseldorf, Germany; #456-1044). […] For protein detection via chemiluminescence, the membrane was incubated in HRP-substrate (Thermo Fisher Scientific; #34577) for 5 min and the signal was recorded using the Fusion Pulse TS microscope (VILBER, Eberhardzell; Germany). Signal quantification was performed using the software EvolutionCapt (VILBER). […]
Figure 8 Compound (1s) stabilizes IκBα under normoxic and under hypoxic conditions. […] Statistical difference vs. TNFα was calculated with two-way ANOVA (* p < 0.05, ** p < 0.01, *** p < 0.001). […]

COc1ccc2c3c(c4cc(OC)c(OC)cc4c2c1)CN1CCCC1C3O (centres unmarked) [Compound (1), O-methyltylophorinidine]
IC50 (NFκB): 3.7 ± 1 nM

COc1ccc2c3c(c4cc(OC)c(OC)cc4c2c1)CN1CCCC1C3O (centres unmarked) [Compound (1s), O-methyltylophorinidine]
IC50 (MDA-MB-468-UnaG [1]; 24 h, read-out: cell viability IC50, hypoxia): 6.5 nM | decrease of cytotoxic effects by hypoxia (factor) (MDA-MB-468-UnaG [1]; hypoxia vs normoxia, MDA-MB-468-UnaG): barely affected | IC50 (MDA-MB-468-UnaG [1]; read-out: cell viability IC50, normoxia): 6.7 nM | sub-G0/G1 population (MDA-MB-468-UnaG [2]; 48 h): increase in the sub-G0/G1 population | cell cycle phase population (MDA-MB-468-UnaG [2]; (1s) 20 nM 72 h, paclitaxel within 24 h): significant increase in G2/M population | TNFα-mediated IκBα degradation (IκBα; CoCl2-simulated hypoxia, 20 nM): suppressed | IκBα protein level after TNFα (IκBα; normoxia, 20 nM pre-incubation 1 h, TNFα 10 ng/mL 30 min): stabilized IκBα
